tested on: not given; assay: not given; conditions: not given

| SMILES | melting point |
| --- | --- |
| O=C(Nc1ccc2c(c1)OCO2)Nc1cccc2c1CC(O)CC2 (stereo not drawn) | 209 to 211 °C |
| CC(=O)OC1Cc2cccc(NC(=O)Nc3ccc(Cl)c(C(F)(F)F)c3)c2C1 (stereo not drawn) [Example 1-1, 4-[({[4-Chloro-3-(trifluoromethyl)phenyl]amino}carbonyl)amino]-2,3-dihydro-1H-inden-2-yl acetate] | 207 to 209 °C |
| CC(=O)OC1Cc2cccc(NC(=O)NCc3ccc(C(F)(F)F)cc3)c2C1 (stereo not drawn) [Example 1-2] | 166 to 168 °C |
| COc1ccccc1C(=O)Nc1cccc2c1CC(O)CC2 (stereo not drawn) [Example 1-2] | 184 to 186 °C |
| O=C(NCc1cccnc1)Nc1cccc2c1CC(O)CC2 (stereo not drawn) [Example 1-5] | 203 °C |
| O=C(NCc1ccncc1)Nc1cccc2c1CC(O)CC2 (stereo not drawn) [Example 1-6] | 243 °C |
| O=C(Nc1cccc(-c2ccncc2)c1)Nc1cccc2c1CC(O)CC2 (stereo not drawn) [Example 1-11] | 208 °C |
| O=C(NCc1ccc(C(F)(F)F)nc1)Nc1cccc2c1CC(O)CC2 (stereo not drawn) [Example 1-12] | 211 to 212 °C |
| CCOC1=CCc2c(cccc2NC(=O)Nc2ccc(Cl)c(C(F)(F)F)c2)C1 [Example 2-1, N-[4Chloro-3-(trifluoromethyl)phenyl]-N′-(6-ethoxy-5,8-dihydronaphthalen-1-yl)urea] | 216 °C |
| O=C(Nc1ccc(Cl)c(C(F)(F)F)c1)Nc1cccc2c1CCC(O)C2 (stereo not drawn) [Example 2-3, N-[4-Chloro-3-(trifluoromethyl)phenyl]-N′-(6-hydroxy-5,6,7,8-tetrahydronaphthalen-1-yl)urea] | 216 °C |
| CCOC1=CCc2c(cccc2NC(=O)NCc2ccc(C(F)(F)F)cc2)C1 [Example 2-4] | 235 °C |
| O=C(NCc1ccc(C(F)(F)F)cc1)Nc1cccc2c1CCC(O)C2 (stereo not drawn) [Example 2-6] | 205 °C |
| COC1Cc2c(cccc2NC(=O)Nc2ccc(Cl)c(C(F)(F)F)c2)CC1O (stereo not drawn) [Example 2-9] | 112 to 127 °C |

Next, values leading:

| melting point | SMILES |
| --- | --- |
| 221 to 223 °C | O=C(Nc1ccc(Cl)c(C(F)(F)F)c1)Nc1cccc2c1CCC2O (stereo not drawn) [Example 1-3] |
| 193 to 195 °C | O=C(Nc1cccc2c1CC(O)CC2)NC1CCc2ccccc21 (stereo not drawn) [Example 1-3] |
| 217 to 218 °C | O=C(Nc1cccc2c1CC(O)CC2)c1ccc(C(F)(F)F)cc1 (stereo not drawn) [Example 1-3] |
| 200 to 202 °C | O=C(Nc1ccc(Oc2ccncc2)cc1)Nc1cccc2c1CC(O)CC2 (stereo not drawn) [Example 1-4] |
| 216 °C | O=C(Nc1cccc2c1CC(O)CC2)NC1CCCc2ccccc21 (stereo not drawn) [Example 1-7] |
| 225 °C | O=C(NCc1ccc(-c2csnn2)cc1)Nc1cccc2c1CC(O)CC2 (stereo not drawn) [Example 1-8] |
| 230 °C | O=C(NCc1ccccn1)Nc1cccc2c1CC(O)CC2 (stereo not drawn) [Example 1-9] |
| 190 °C | O=C(NCc1ccc2c(c1)OCO2)Nc1cccc2c1CC(O)CC2 (stereo not drawn) [Example 1-10] |
| 204 to 205 °C | Cl.O=C(NCc1ccc(C(F)(F)F)nc1)Nc1cccc2c1CC(O)CC2 (stereo not drawn) [Example 1-13] |
| 219 °C | O=C1CCc2c(cccc2NC(=O)Nc2ccc(Cl)c(C(F)(F)F)c2)C1 [Example 2-2, N-[4-Chloro-3-(trifluoromethyl)phenyl]-N′-(6-oxo-5,6,7,8-tetrahydronaphthalen-1-yl)urea] |
| 221 °C | O=C1CCc2c(cccc2NC(=O)NCc2ccc(C(F)(F)F)cc2)C1 [Example 2-5] |

molecular target: T1, human VR1 (Homo sapiens, UniProt Q8NER1); assay: Capsaicin-induced Ca2+ influx in the human VR1-transfected CHO cell line (Assay 1); assay type: cell-based; conditions: stimulation with 10 nM capsaicin; human VR1-CHOluc9aeq cells; read-out: activity class (IC50)
T1 construct: expressed in transfected cells
Description: [Measurement of Capsaicin-induced Ca^2+ Influx in the Human VR1-transfected CHO Cell Line](Assay 1)
(1) Establishment of the Human VR1-CHOluc9aeq Cell Line
Human vanilloid receptor (hVR1) cDNA was cloned from libraries of axotomized dorsal root ganglia (WO 00/29577). The cloned hVR1 cDNA was constructed with pcDNA3 vector and transfected into a CHOluc9aeq cell line. The cell line contains aequorin and CRE-luciferase reporter genes as read-out signals. The transfectants were cloned by limiting dilution in selection medium (DMEM/F12 medium (Gibco BRL) supplemented with 10% FCS, 1.4 mM Sodium pyruvate, 20 mM HEPES, 0.15% Sodium bicarbonate, 100 U/ml penicillin, 100 μg/ml streptomycin, 2 mM glutamine, non-essential amino acids and 2 mg/ml G418). Ca^2+ influx was examined in the capsaicin-stimulated clones. A high responder clone was selected and used for further experiments in the project. The human VR1-CHOluc9aeq cells were maintained in the selection medium and passaged every 3-4 days at 1-2.5×10^5 cells/flask ([…]).
(2) Measurement of Ca^2+ Influx Using FDSS-3000
Human VR1-CHOluc9aeq cells were suspended in a culture medium which is the same as the selection medium except for G418 and seeded at a density of 1,000 cells per well into 384-well plates (black walled clear-base/Nalge Nunc International). Following the culture for 48 hrs the medium was changed to 2 μM Fluo-3 AM (Molecular Probes) and 0.02% Puronic F-127 in assay buffer (Hank's balanced salt solution (HBSS), 17 mM HEPES (pH7.4), 1 mM Probenecid, 0.1% BSA) and the cells were incubated for 60 min at 25° C. After washing twice with assay buffer the cells were incubated with a test compound or vehicle for 20 min at 25° C. Mobilization of cytoplasmic Ca^2+ was measured by FDSS-3000 (λex=488 nm, λem=540 nm/Hamamatsu Photonics) for 60 sec after the stimulation with 10 nM capsaicin. Integral R was calculated and compared with controls.

T1 sequence (Q8NER1 whole entry): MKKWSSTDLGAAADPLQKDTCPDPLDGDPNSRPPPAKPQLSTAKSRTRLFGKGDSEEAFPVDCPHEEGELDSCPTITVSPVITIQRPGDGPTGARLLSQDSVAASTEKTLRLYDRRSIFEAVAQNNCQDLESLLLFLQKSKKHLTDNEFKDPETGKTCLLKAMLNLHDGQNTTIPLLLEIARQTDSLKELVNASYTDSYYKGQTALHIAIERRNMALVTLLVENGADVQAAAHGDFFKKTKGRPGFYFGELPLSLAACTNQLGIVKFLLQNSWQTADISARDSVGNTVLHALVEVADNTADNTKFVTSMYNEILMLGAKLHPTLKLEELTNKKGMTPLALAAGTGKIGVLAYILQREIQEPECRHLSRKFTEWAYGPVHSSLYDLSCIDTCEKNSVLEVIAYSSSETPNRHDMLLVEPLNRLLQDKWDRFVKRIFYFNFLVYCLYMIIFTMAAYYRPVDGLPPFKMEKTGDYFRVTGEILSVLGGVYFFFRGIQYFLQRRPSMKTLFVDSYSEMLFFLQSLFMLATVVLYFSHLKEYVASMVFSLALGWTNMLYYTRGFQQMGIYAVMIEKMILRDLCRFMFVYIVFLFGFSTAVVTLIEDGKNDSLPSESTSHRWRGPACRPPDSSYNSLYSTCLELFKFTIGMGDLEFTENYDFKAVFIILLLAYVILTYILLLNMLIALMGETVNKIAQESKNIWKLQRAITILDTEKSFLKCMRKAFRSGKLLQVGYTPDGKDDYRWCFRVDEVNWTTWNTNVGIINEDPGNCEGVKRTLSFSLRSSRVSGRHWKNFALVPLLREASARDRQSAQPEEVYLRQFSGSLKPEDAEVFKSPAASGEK

| SMILES | IC50 |
| --- | --- |
| CC(=O)OC1Cc2cccc(NC(=O)NCc3ccc(C(F)(F)F)cc3)c2C1 (stereo not drawn) [1-2] | < 100 nM |
| COc1ccccc1C(=O)Nc1cccc2c1CC(O)CC2 (stereo not drawn) [1-2] | 500 to 1000 nM |
| O=C(Cc1cccc(Br)c1)Nc1cccc2c1CC(O)CC2 (stereo not drawn) [1-4] | 500 to 1000 nM |
| O=C(Nc1ccc(Oc2ccncc2)cc1)Nc1cccc2c1CC(O)CC2 (stereo not drawn) [1-4] | 100 to 500 nM |
| O=C(NCc1cccnc1)Nc1cccc2c1CC(O)CC2 (stereo not drawn) [1-5] | 500 to 1000 nM |
| O=C(NCc1ccncc1)Nc1cccc2c1CC(O)CC2 (stereo not drawn) [1-6] | 500 to 1000 nM |
| O=C(Nc1cccc2c1CC(O)CC2)NC1CCCc2ccccc21 (stereo not drawn) [1-7] | < 100 nM |
| O=C(NCc1ccc(-c2csnn2)cc1)Nc1cccc2c1CC(O)CC2 (stereo not drawn) [1-8] | < 100 nM |
| O=C1CCc2c(cccc2NC(=O)NCc2ccc(C(F)(F)F)cc2)C1 [2-5] | < 100 nM |
| O=C(NCc1ccc(C(F)(F)F)cc1)Nc1cccc2c1CCC(O)C2 (stereo not drawn) [2-6] | < 100 nM |
| O=C(Nc1ccc(Cl)c(C(F)(F)F)c1)Nc1cccc2c1CC(O)C(O)C2 (stereo not drawn) [2-7] | < 100 nM |
| COC1Cc2cccc(NC(=O)Nc3ccc(Cl)c(C(F)(F)F)c3)c2CC1O (stereo not drawn) [2-8] | 100 to 500 nM |
| CC(=O)OC1Cc2cccc(NC(=O)Nc3ccc(Cl)c(C(F)(F)F)c3)c2C1 (stereo not drawn) [Example 1-1] | 500 to 1000 nM |
| O=C(Nc1cccc(-c2ccncc2)c1)Nc1cccc2c1CC(O)CC2 (stereo not drawn) [Example 1-11] | < 100 nM |
| O=C(NCc1ccc(C(F)(F)F)nc1)Nc1cccc2c1CC(O)CC2 (stereo not drawn) [Example 1-12] | < 100 nM |
| O=C1CCc2c(cccc2NC(=O)Nc2ccc(Cl)c(C(F)(F)F)c2)C1 [Example 2-2] | < 100 nM |
| O=C(Nc1ccc(Cl)c(C(F)(F)F)c1)Nc1cccc2c1CCC(O)C2 (stereo not drawn) [Example 2-3, N-[4-Chloro-3-(trifluoromethyl)phenyl]-N′-(6-hydroxy-5,6,7,8-tetrahydronaphthalen-1-yl)urea] | < 100 nM |
| COC1Cc2c(cccc2NC(=O)Nc2ccc(Cl)c(C(F)(F)F)c2)CC1O (stereo not drawn) [Example 2-9] | < 100 nM |
| CC1CCc2cccc(NC(=O)Nc3ccc(Cl)c(C(F)(F)F)c3)c2C1 (stereo not drawn) [Example 3-1] | < 100 nM |

Other lines, results leading:

| IC50 | SMILES |
| --- | --- |
| 100 to 500 nM | CC(C)(C)c1cc(NC(=O)Nc2cccc3c2CC(O)CC3)no1 (stereo not drawn) [1-2] |
| < 100 nM | O=C(Nc1ccc(Cl)c(C(F)(F)F)c1)Nc1cccc2c1CCC2O (stereo not drawn) [1-3] |
| 100 to 500 nM | O=C(Nc1cccc2c1CC(O)CC2)NC1CCc2ccccc21 (stereo not drawn) [1-3] |
| 100 to 500 nM | O=C(Nc1cccc2c1CC(O)CC2)c1ccc(C(F)(F)F)cc1 (stereo not drawn) [1-3] |
| 500 to 1000 nM | CCOC1=CCc2c(cccc2NC(=O)NCc2ccc(C(F)(F)F)cc2)C1 [2-4] |
| 500 to 1000 nM | O=C(Nc1ccc2c(c1)OCO2)Nc1cccc2c1CC(O)CC2 (stereo not drawn) [Example 1-1] |
| 100 to 500 nM | O=C(Nc1cccc2c1CC(O)CC2)c1cc2cc(Cl)ccc2[nH]1 (stereo not drawn) [Example 1-1] |
| 500 to 1000 nM | O=C(NCc1ccccn1)Nc1cccc2c1CC(O)CC2 (stereo not drawn) [Example 1-9] |
| < 100 nM | O=C(NCc1ccc2c(c1)OCO2)Nc1cccc2c1CC(O)CC2 (stereo not drawn) [Example 1-10] |
| < 100 nM | Cl.O=C(NCc1ccc(C(F)(F)F)nc1)Nc1cccc2c1CC(O)CC2 (stereo not drawn) [Example 1-13] |
| < 100 nM | O=C(Nc1ccc(Cl)c(C(F)(F)F)c1)Nc1cccc2c1CC(CO)CC2 (stereo not drawn) [Example 4-1, N-[4-Chloro-3-(trifluoromethyl)phenyl]-N′-[7-(hydroxymethyl)-5,6,7,8-tetrahydronaphthalen-1-yl]urea] |

From US20080045546A1, “Tetradydro-Naphthalene And Urea Derivatives” (priority 2003, published 2008)
